Source: BindingDB's records for doi:10.1021/jm00059a006 (Ura Cnrs 1309, 1993)

Assay: Effective concentration that reduces HIV-induced cytopathic effect by 50% was determined by reverse transcriptase (RT) assay.

Row | Compound | EC50 [nM]
1 | CCCCCCCCCCCCCCCC(=O)OCC1C=CC(n2cc(C)c(=O)[nH]c2=O)O1 (stereo not given) [Hexadecanoic acid 5-(5-methyl-2,4-dioxo-3,4-dihydro-2H-pyrimidin-1-yl)-2,5-dihydro-furan-2-ylmethyl ester] | 80
2 | Cc1cn([C@H]2C=C[C@@H](CO)O2)c(=O)[nH]c1=O [2',3'-didehydro-3'-deoxythymidine] | 50
3 | Cc1cn(C2C=CC(COP(=O)(O)OCC3C=CC(n4cc(C)c(=O)[nH]c4=O)O3)O2)c(=O)[nH]c1=O (stereo not given) [Phosphoric acid bis-[5-(5-methyl-2,4-dioxo-3,4-dihydro-2H-pyrimidin-1-yl)-2,5-dihydro-furan-2-ylmethyl] ester] | 50

Further molecules by falling EC50, results first:

Row | EC50 [nM] | Compound
4 | 200 | CCCCCCCCCCCCCCCCOP(=O)(O)OCC1C=CC(n2cc(C)c(=O)[nH]c2=O)O1 (stereo not given) [Phosphoric acid hexadecyl ester 5-(5-methyl-2,4-dioxo-3,4-dihydro-2H-pyrimidin-1-yl)-2,5-dihydro-furan-2-ylmethyl ester]
5 | 10 | Cc1cn([C@H]2C[C@H](N=[N+]=[N-])[C@@H](CO)O2)c(=O)[nH]c1=O [1-((2R,4S,5S)-4-Azido-5-hydroxymethyl-tetrahydro-furan-2-yl)-5-methyl-1H-pyrimidine-2,4-dione]
